Reference: PubChem BioAssay AID1918999 (Molecular Pharmacology Branch, DTP, NCI, 2023)
Blank lines part the entries; values can stand above or below the compound they belong to.

Tested on: 556581-035-R-J1-PDC complex spheroid growth
Assay: Anticancer human tumor 556581-035-R-J1-PDC patient-derived ovarian carcinoma cell line growth inhibition [AhR]
Conditions: for IC50: curve of first compound; for viability, T/C: stronger effect = lower value
Source text: Multicellular complex tumor spheroid response to aryl hydrocarbon receptor antagonists in combination with a variety of drugs and investigational agents in selected tumor cell lines
The current study was undertaken to assess response to aryl hydrocarbon receptor antagonists in combination with standard-of-care drugs and investigational agents in solid tumor complex spheroid models. Complex spheroids include a stromal component modeled by human endothelial cells (HUVEC) and fibroblasts modeled by human mesenchymal stem cells (MSCs). The concentration ranges selected for each drug and investigational agent were based upon clinically achievable concentrations if the clinical Cmax of the agent was known.
Compounds. The drugs and investigational agents: BAY 2416964 (NSC825713), GNF351 (NSC835774), CH-223191 (NSC835775), CPI-455 (NSC825282), aza-TdCyd (NSC777586), decitabine (NSC127716), belinostat (NSC758774), entinostat (NSC756642), pevonedistat (NSC761192), tazemetostat (NSC777109), talazoparib (NSC765396), olaparib (NSC753686), selinexor (NSC780203), nedisertib (M3814, NSC802822), bortezomib (NSC756655), venetoclax (NSC766270), doxorubicin (NSC123127), elimusertib (BAY189344, NSC800525), ceralasertib (AZD6738, NSC777638), TAK-243 (NSC785004), alisertib (NSC759677), etoposide (NSC141540), topotecan (NSC609699), eribulin (NSC707389), gemcitabine (NSC613327), carboplatin (NSC241240), cisplatin (NSC119875), and SN-38 (NSC673596) were obtained from the National Cancer Institute (NCI) Developmental Therapeutics Program Chemical Repository (32). The FDA-approved anticancer drug set is available from the Developmental Therapeutics Program at https://dtp.cancer.gov/organization/dscb/obtaining/available plates.htm. […] The stock solutions were prepared in dimethyl sulfoxide (DMSO, Sigma-Aldrich, St. Louis, MO, cat. D2650), except for the platinum compounds which were prepared in saline (Quality Biological, Gaithersburg, MD, cat. 114-055-101), at 800-fold the tested concentration and stored at -70 degrees C prior to their use. All drugs and investigational agents were tested over a range starting from a high concentration at or near the clinical Cmax and decreasing in half-log increments. If the clinical Cmax for an agent had not been determined, the highest concentration tested was 10 microM (Table 1).
Cell Culture. All cells were maintained in an incubator at 37 degrees C and 5% CO2 with 95% humidity. The PDC lines were cultured according to standard operating procedures established by the NCI PDMR (https://pdmr.cancer.gov). Briefly, all PDCs were thawed and cultured in Matrigel-coated flasks prepared with a working solution of 1X Ham's F-12 nutrient mix, without supplementation (Invitrogen, Waltham, MA, cat. 11765054), 100 U/mL penicillin-streptomycin (Invitrogen, cat. 15140122), and 2.5% Matrigel (Corning Inc., Corning, NY, cat. 354248) for the first three passages. All PDCs were cultured in complete DMEM/F-12 media containing advanced DMEM/F-12 (Invitrogen, cat. 12634028), 4.9% defined fetal bovine serum, heat inactivated (HyClone Laboratories Inc., Logan, UT, cat. SH30070.03HI), 389 ng/mL hydrocortisone (Sigma-Aldrich, cat. H4001), 9.7 ng/mL human EGF recombinant protein (Invitrogen, cat. PHG0313), 23.4 microg/mL adenine (Sigma-Aldrich, cat. A2786), 97.3 U/mL penicillin-streptomycin (Invitrogen, cat. 15140122), 1.9 mM L-glutamine (Invitrogen, cat. 25030081), and 9.7 microM Y-27632 dihydrochloride (Tocris Bioscience, Bristol, United Kingdom, cat. 1254). The PDCs were cultured in complete DMEM/F12 media without 10 microM Y-27632 dihydrochloride for at least two passages prior to the screen. The established cell lines NCI-H1341 and […] were cultured in DMEM/F-12, HEPES (Invitrogen, cat. 11330032), 5% defined fetal bovine serum (HyClone Laboratories Inc., cat. SH30070.03), ITS premix universal culture supplement [insulin (5 microg/mL), transferrin (5 microg/mL), and selenious acid (5 ng/mL)] […]

[1] = second compound 0.1 µM, first compound 0.0316 µM
[2] = second compound 0.1 µM, first compound 0.1 µM
[3] = second compound 0.1 µM, first compound 0.316 µM
[4] = second compound 0.1 µM, first compound 1 µM
[5] = second compound 0.316 µM, first compound 0.0316 µM
[6] = second compound 0.316 µM, first compound 0.1 µM
[7] = second compound 0.316 µM, first compound 0.316 µM
[8] = second compound 0.316 µM, first compound 1 µM
[9] = second compound 1 µM, first compound 0.0316 µM
[10] = second compound 1 µM, first compound 0.1 µM
[11] = second compound 1 µM, first compound 0.316 µM
[12] = second compound 1 µM, first compound 1 µM
[13] = second compound 3.16 µM, first compound 0.0316 µM
[14] = second compound 3.16 µM, first compound 0.1 µM
[15] = second compound 3.16 µM, first compound 0.316 µM
[16] = second compound 3.16 µM, first compound 1 µM
[17] = second compound 10 µM, first compound 0.0316 µM
[18] = second compound 10 µM, first compound 0.1 µM
[19] = second compound 10 µM, first compound 0.316 µM
[20] = second compound 10 µM, first compound 1 µM
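For viability, T/C in this document: compound exposure lasted 7 days; 100% = DMSO vehicle control growth.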

- IC50 (second compound 0.1 µM): 393 nM
- IC50 (second compound 0.316 µM): 396 nM
- IC50 (second compound 1 µM): 445 nM
- IC50 (second compound 3.16 µM): 375 nM
- IC50 (second compound 10 µM): 361 nM
SMILES: COc1cccc2c1C(=O)c1c(O)c3c(c(O)c1C2=O)CC(O)(C(=O)CO)CC3OC1CC(N)C(O)C(C)O1 (stereo not given) + CC(CO)NC(=O)c1cc(-c2ccc(Cl)cc2)nn(-c2cnn(C)c2)c1=O
- viability, T/C [1]: 89.7%
- viability, T/C [2]: 80.7%
- viability, T/C [3]: 58.7%
- viability, T/C [4]: 16.1%
- viability, T/C (second compound 0.1 µM, first compound 3.16 µM): 3.94%
- viability, T/C (second compound 0.1 µM, first compound 10 µM): 3.84%
- viability, T/C [5]: 83.9%
- viability, T/C [6]: 79.3%
- viability, T/C [7]: 58.1%
- viability, T/C [8]: 17.5%
- viability, T/C (second compound 0.316 µM, first compound 3.16 µM): 4.59%
- viability, T/C (second compound 0.316 µM, first compound 10 µM): 3.12%
- viability, T/C [9]: 85%
- viability, T/C [10]: 87.3%
- viability, T/C [11]: 64.8%
- viability, T/C [12]: 14.5%
- viability, T/C (second compound 1 µM, first compound 3.16 µM): 3.33%
- viability, T/C (second compound 1 µM, first compound 10 µM): 3.66%
- viability, T/C [13]: 75.8%
- viability, T/C [14]: 79.4%
- viability, T/C [15]: 55.9%
- viability, T/C [16]: 13.1%
- viability, T/C (second compound 3.16 µM, first compound 3.16 µM): 4.03%
- viability, T/C (second compound 3.16 µM, first compound 10 µM): 3.23%
- viability, T/C [17]: 88.9%
- viability, T/C [18]: 87%
- viability, T/C [19]: 56%
- viability, T/C [20]: 3.3%
- viability, T/C (second compound 10 µM, first compound 3.16 µM): 1.46%
- viability, T/C (second compound 10 µM, first compound 10 µM): 3.96%

- IC50 (second compound 0.1 µM): > 1000 nM
- IC50 (second compound 0.316 µM): > 1000 nM
- IC50 (second compound 1 µM): > 1000 nM
- IC50 (second compound 3.16 µM): > 1000 nM
- IC50 (second compound 10 µM): > 1000 nM
SMILES: Nc1ncn(C2CC(O)C(CO)O2)c(=O)n1 (stereo not given) + CC(CO)NC(=O)c1cc(-c2ccc(Cl)cc2)nn(-c2cnn(C)c2)c1=O
- viability, T/C (second compound 0.1 µM, first compound 0.00316 µM): 92.5%
- viability, T/C (second compound 0.1 µM, first compound 0.01 µM): 89.9%
- viability, T/C [1]: 84.9%
- viability, T/C [2]: 77.1%
- viability, T/C [3]: 78.7%
- viability, T/C [4]: 70.4%
- viability, T/C (second compound 0.316 µM, first compound 0.00316 µM): 88.4%
- viability, T/C (second compound 0.316 µM, first compound 0.01 µM): 95%
- viability, T/C [5]: 84.3%
- viability, T/C [6]: 78.4%
- viability, T/C [7]: 71.9%
- viability, T/C [8]: 72.4%
- viability, T/C (second compound 1 µM, first compound 0.00316 µM): 85%
- viability, T/C (second compound 1 µM, first compound 0.01 µM): 104%
- viability, T/C [9]: 85.3%
- viability, T/C [10]: 81.8%
- viability, T/C [11]: 72.3%
- viability, T/C [12]: 72.2%
- viability, T/C (second compound 3.16 µM, first compound 0.00316 µM): 95.4%
- viability, T/C (second compound 3.16 µM, first compound 0.01 µM): 90.7%
- viability, T/C [13]: 87.3%
- viability, T/C [14]: 75.2%
- viability, T/C [15]: 70.1%
- viability, T/C [16]: 68.9%
- viability, T/C (second compound 10 µM, first compound 0.00316 µM): 97.5%
- viability, T/C (second compound 10 µM, first compound 0.01 µM): 99.6%
- viability, T/C [17]: 92.3%
- viability, T/C [18]: 81.8%
- viability, T/C [19]: 80%
- viability, T/C [20]: 77.1%
